Data: patent US6855843B2, “Inhibitors of α4 mediated cell adhesion” (Tanabe Seiyaku Co., Ltd., priority 1998, dated 2005)
Where a name gives a salt, the structure may show the parent alone.

Target: T1, α4β7 (adhesion of RPMI cells to CS-1) (Homo sapiens, UniProt P13612+P26010)
T1 construct: endogenous in cells
T1 sequence (P13612 34-1032): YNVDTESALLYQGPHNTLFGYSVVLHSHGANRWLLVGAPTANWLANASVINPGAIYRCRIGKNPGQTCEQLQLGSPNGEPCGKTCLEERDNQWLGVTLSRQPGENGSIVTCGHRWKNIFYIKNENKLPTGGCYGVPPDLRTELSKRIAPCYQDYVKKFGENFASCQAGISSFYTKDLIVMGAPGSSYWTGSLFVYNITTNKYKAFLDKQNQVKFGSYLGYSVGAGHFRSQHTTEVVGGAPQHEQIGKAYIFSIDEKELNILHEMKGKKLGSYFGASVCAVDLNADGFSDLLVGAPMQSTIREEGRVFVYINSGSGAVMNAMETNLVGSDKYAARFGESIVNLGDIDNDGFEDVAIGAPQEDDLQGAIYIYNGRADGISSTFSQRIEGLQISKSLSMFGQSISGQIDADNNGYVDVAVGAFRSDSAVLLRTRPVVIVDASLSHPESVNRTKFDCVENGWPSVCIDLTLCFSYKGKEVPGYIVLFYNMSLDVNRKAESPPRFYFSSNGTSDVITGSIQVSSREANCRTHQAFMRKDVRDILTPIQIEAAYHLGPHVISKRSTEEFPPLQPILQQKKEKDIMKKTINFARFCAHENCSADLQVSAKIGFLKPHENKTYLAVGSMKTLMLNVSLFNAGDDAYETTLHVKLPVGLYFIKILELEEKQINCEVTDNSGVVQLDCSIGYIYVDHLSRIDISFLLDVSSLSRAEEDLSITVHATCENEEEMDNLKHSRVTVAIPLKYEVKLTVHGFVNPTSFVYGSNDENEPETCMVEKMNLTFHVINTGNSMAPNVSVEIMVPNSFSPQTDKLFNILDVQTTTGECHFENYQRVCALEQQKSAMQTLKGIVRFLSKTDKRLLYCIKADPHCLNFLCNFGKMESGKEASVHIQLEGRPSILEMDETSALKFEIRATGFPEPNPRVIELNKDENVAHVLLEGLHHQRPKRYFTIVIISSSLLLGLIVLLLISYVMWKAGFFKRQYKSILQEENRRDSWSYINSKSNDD
T1 sequence (P26010 20-798): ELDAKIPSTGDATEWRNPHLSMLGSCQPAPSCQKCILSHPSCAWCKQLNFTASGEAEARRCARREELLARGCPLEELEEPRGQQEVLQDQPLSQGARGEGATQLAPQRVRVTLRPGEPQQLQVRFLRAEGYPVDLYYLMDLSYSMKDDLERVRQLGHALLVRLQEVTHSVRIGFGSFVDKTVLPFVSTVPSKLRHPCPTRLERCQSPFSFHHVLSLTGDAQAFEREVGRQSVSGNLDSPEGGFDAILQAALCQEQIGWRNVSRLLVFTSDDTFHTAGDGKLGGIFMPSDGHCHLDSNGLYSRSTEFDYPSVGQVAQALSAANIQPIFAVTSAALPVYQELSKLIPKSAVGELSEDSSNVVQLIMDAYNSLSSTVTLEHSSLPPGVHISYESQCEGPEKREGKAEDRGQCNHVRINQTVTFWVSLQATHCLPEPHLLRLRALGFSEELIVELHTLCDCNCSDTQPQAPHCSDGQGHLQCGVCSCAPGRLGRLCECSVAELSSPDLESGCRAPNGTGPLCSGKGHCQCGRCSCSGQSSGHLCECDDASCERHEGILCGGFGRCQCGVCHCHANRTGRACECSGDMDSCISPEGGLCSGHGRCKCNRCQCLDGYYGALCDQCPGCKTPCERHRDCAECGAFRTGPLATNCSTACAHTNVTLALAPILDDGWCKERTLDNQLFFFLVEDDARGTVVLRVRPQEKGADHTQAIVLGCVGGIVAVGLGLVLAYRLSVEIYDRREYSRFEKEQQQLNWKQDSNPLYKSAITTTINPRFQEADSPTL
Test: RPMI-CS-1 cell adhesion assay
Format: cell-based
Conditions: adhesion of RPMI B-cell line (expresses α4β7) to CS-1 peptide coated microwells; read-out: RPMI-CS-1 IC50 value range

Row | Structure (SMILES) | IC50 [nM]
1 | O=C(N[C@@H](Cc1ccc(-c2ccsc2CO)cc1)C(=O)O)c1c(Cl)cccc1Cl [Example 218, N-(2,6-Dichlorobenzoyl)-4-(2-hydroxymethyl-3-thienyl)-L-phenylalanine] | 1000 to 5000
2 | N#Cc1sccc1-c1ccc(C[C@H](NC(=O)c2c(Cl)cccc2Cl)C(=O)O)cc1 [Example 219, N-(2,6-Dichlorobenzoyl)-4-(2-cyano-3-thienyl)-L-phenylalanine] | 300 to 1000
3 | COc1cc(OCc2ccsc2)cc(OC)c1-c1ccc(C[C@H](NC(=O)c2c(Cl)cccc2Cl)C(=O)O)cc1 [Example 220, N-(2,6-Dichlorobenzoyl)-4-[2,6-dimethoxy-4-(3-thienylmethoxy)phenyl]-L-phenylalanine] | < 300
4 | COc1cc(OCc2c(Cl)cccc2Cl)cc(OC)c1-c1ccc(C[C@H](NC(=O)c2c(Cl)cccc2Cl)C(=O)O)cc1 [Example 221, N-(2,6-Dichlorobenzoyl)-4-[2,6-dimethoxy-4-[(2,6-dichlorophenyl)methoxy]phenyl]-L-phenylalanine] | 1000 to 5000
5 | COc1cc(OCCO)cc(OC)c1-c1ccc(C[C@H](NC(=O)c2c(Cl)cccc2Cl)C(=O)O)cc1 [Example 222, N-(2,6-Dichlorobenzoyl)-4-[2,6-dimethoxy-4-(2-hydroxyethoxy)phenyl]-L-phenylalanine] | < 300
6 | COc1cc(OCCN(C)C)cc(OC)c1-c1ccc(C[C@H](NC(=O)c2c(Cl)cccc2Cl)C(=O)O)cc1 [Example 223, N-(2,6-Dichlorobenzoyl)-4-[2,6-dimethoxy-4-[2-(N,N-dimethylamino)ethoxy]phenyl]-L-phenylalanine] | < 300
7 | CC(C)Oc1cccc(-c2ccc(C[C@H](NC(=O)c3c(Cl)cccc3Cl)C(=O)O)cc2)c1 [Example 224, N-(2,6-Dichlorobenzoyl)-4-(3-i-propoxyphenyl)-L-phenylalanine] | 1000 to 5000
8 | CC(C)Oc1ccccc1-c1ccc(C[C@H](NC(=O)c2c(Cl)cccc2Cl)C(=O)O)cc1 [Example 225, N-(2,6-Dichlorobenzoyl)-4-(2-i-propoxyphenyl)-L-phenylalanine] | 1000 to 5000
9 | COc1cccc(OC(C)C)c1-c1ccc(C[C@H](NC(=O)c2c(Cl)cccc2Cl)C(=O)O)cc1 [Example 226, N-(2,6-Dichlorobenzoyl)-4-(2-i-propyloxy-6-methoxyphenyl)-L-phenylalanine] | < 300
10 | CN(C)CCOc1ccc2c(c1-c1ccc(C[C@H](NC(=O)c3c(Cl)cccc3Cl)C(=O)O)cc1)OCO2 [Example 234, N-(2,6-Dichlorobenzoyl)-4-[2,3-methylenedioxy-6-[2-(N,N-dimethylamino)ethoxy]phenyl]-L-phenylalanine] | < 300
11 | COCOc1ccc2c(c1-c1ccc(C[C@H](NC(=O)c3c(Cl)cccc3Cl)C(=O)O)cc1)OCO2 [Example 235, N-(2,6-Dichlorobenzoyl)-4-[2,3-methylenedioxy-6-(methoxymethoxy)phenyl]-L-phenylalanine] | < 300
12 | O=C(N[C@@H](Cc1ccc(-c2c(O)ccc3c2OCO3)cc1)C(=O)O)c1c(Cl)cccc1Cl [Example 236, N-(2,6-Dichlorobenzoyl)-4-(2,3-methylenedioxy-6-hydroxyphenyl)-L-phenylalanine] | < 300
13 | CCOc1ccc2c(c1-c1ccc(C[C@H](NC(=O)c3c(Cl)cccc3Cl)C(=O)O)cc1)OCO2 [Example 237, N-(2,6-Dichlorobenzoyl)-4-(2,3-methylenedioxy-6-ethoxyphenyl)-L-phenylalanine] | < 300
14 | O=C(N[C@@H](Cc1ccc(-c2c(OCCO)ccc3c2OCO3)cc1)C(=O)O)c1c(Cl)cccc1Cl [Example 238, N-(2,6-Dichlorobenzoyl)-4-[2,3-methylenedioxy-6-(2-hydroxyethoxy)phenyl]-L-phenylalanine] | < 300
15 | N#CCOc1ccc2c(c1-c1ccc(C[C@H](NC(=O)c3c(Cl)cccc3Cl)C(=O)O)cc1)OCO2 [Example 239, N-(2,6-Dichlorobenzoyl)-4-[2,3-methylenedioxy-6-(cyanomethoxy)phenyl]-L-phenylalanine] | < 300
16 | COc1ccc2c(c1-c1ccc(C[C@H](NC(=O)c3c(Cl)cccc3Cl)C(=O)O)cc1)OCO2 [Example 240, N-(2,6-Dichlorobenzoyl)-4-(2,3-methylenedioxy-6-methoxyphenyl)-L-phenylalanine] | < 300

Row | Structure (SMILES) | IC50 [nM]
17 | COc1cc(CN2CCCC2)cc(OC)c1-c1ccc(C[C@H](NC(=O)c2c(Cl)cccc2Cl)C(=O)O)cc1 [Example 243] | < 300
18 | COc1cc(CN2CCC3(CC2)OCCO3)cc(OC)c1-c1ccc(C[C@H](NC(=O)c2c(Cl)cccc2Cl)C(=O)O)cc1 [Example 244] | < 300
19 | COc1cc(CN2CC(C)OC(C)C2)cc(OC)c1-c1ccc(C[C@H](NC(=O)c2c(Cl)cccc2Cl)C(=O)O)cc1 (stereo partly shown) [Example 245] | < 300
20 | COc1cc(CNCCO)cc(OC)c1-c1ccc(C[C@H](NC(=O)c2c(Cl)cccc2Cl)C(=O)O)cc1 [Example 246] | < 300
21 | COc1cc(CN(C)CCN(C)C)cc(OC)c1-c1ccc(C[C@H](NC(=O)c2c(Cl)cccc2Cl)C(=O)O)cc1 [Example 247] | < 300
22 | COc1cc(CN2CCN(C)CC2)cc(OC)c1-c1ccc(C[C@H](NC(=O)c2c(Cl)cccc2Cl)C(=O)O)cc1 [Example 248] | < 300
23 | COc1cc(CN2CCN(CCO)CC2)cc(OC)c1-c1ccc(C[C@H](NC(=O)c2c(Cl)cccc2Cl)C(=O)O)cc1 [Example 250] | < 300
24 | COc1cc(CN2CCN(C(C)=O)CC2)cc(OC)c1-c1ccc(C[C@H](NC(=O)c2c(Cl)cccc2Cl)C(=O)O)cc1 [Example 251] | < 300
25 | CCCN1CCN(Cc2cc(OC)c(-c3ccc(C[C@H](NC(=O)c4c(Cl)cccc4Cl)C(=O)O)cc3)c(OC)c2)CC1 [Example 252] | < 300
26 | COc1cc(CN(C)C)cc(OC)c1-c1ccc(C[C@H](NC(=O)c2c(Cl)cccc2Cl)C(=O)O)cc1 [Example 255, N-(2,6-Dichlorobenzoyl)-4-[2,6-dimethoxy-4-[(N,N-dimethylamino)methyl]phenyl]-L-phenylalanine] | < 300
27 | COc1cc(CN2CCCCC2)cc(OC)c1-c1ccc(C[C@H](NC(=O)c2c(Cl)cccc2Cl)C(=O)O)cc1 [Example 256, N-(2,6-Dichlorobenzoyl)-4-[2,6-dimethoxy-4-(piperidinomethyl)phenyl]-L-phenylalanine] | < 300
28 | COc1cc(CN2CCN(Cc3ccccc3)CC2)cc(OC)c1-c1ccc(C[C@H](NC(=O)c2c(Cl)cccc2Cl)C(=O)O)cc1 [Example 258, N-(2,6-Dichlorobenzoyl)-4-[2,6-dimethoxy-4-[(4-benzyl-1-piperazinyl)methyl]phenyl]-L-phenylalanine] | < 300
29 | CCOC(=O)[C@H](Cc1ccc(-c2c(OC)cc(CN(C)C)cc2OC)cc1)NC(=O)c1c(Cl)cccc1Cl [Example 259, N-(2,6-Dichlorobenzoyl)-4-[2,6-dimethoxy-4-[(N,N-dimethylamino)methyl]phenyl]-L-phenylalanine ethyl ester hydrochloride] | < 300
30 | COc1cc(CN2CCNCC2)cc(OC)c1-c1ccc(C[C@H](NC(=O)c2c(Cl)cccc2Cl)C(=O)O)cc1 [Example 262, N-(2,6-Dichlorobenzoyl)-4-[2,6-dimethoxy-4-[(1-piperazinyl)methyl]phenyl]-L-phenylalanine] | < 300
31 | COc1cc(CN2CCS(=O)(=O)CC2)cc(OC)c1-c1ccc(C[C@H](NC(=O)c2c(Cl)cccc2Cl)C(=O)O)cc1 [Example 263A, N-(2,6-dichlorobenzoyl)-4-[2,6-dimethoxy-4-(thiomorpholinomethyl)phenyl]-L-phenylalanine S,S-dioxide] | < 300
